Measured values published in PubChem BioAssay AID2060489 (Molecular Pharmacology Branch, DTP, NCI, 2025).

Test system: 922993-354-T-J3-PDC complex spheroids, viability
Assay: Anticancer human tumor 922993-354-T-J3-PDC patient-derived endometrial carcinoma cell line growth inhibition [GQUAD]
Conditions: for IC50: curve of first compound; for viability, T/C: stronger effect = lower value; active = viability on the fitted dose curve at most 10% of control; inactive = the rest
Summary of the method: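 Viability of tumor cells grown as complex spheroids with endothelial and stromal cells, exposed to drug combinations. Top concentration at or near clinical Cmax (else 10 microM), diluted in half-log increments.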

[1] = second compound 0.0316 µM, first compound 0.0316 µM
[2] = second compound 0.0316 µM, first compound 0.1 µM
[3] = second compound 0.0316 µM, first compound 0.316 µM
[4] = second compound 0.0316 µM, first compound 1 µM
[5] = second compound 0.0316 µM, first compound 3.16 µM
[6] = second compound 0.0316 µM, first compound 10 µM
[7] = second compound 0.1 µM, first compound 0.0316 µM
[8] = second compound 0.1 µM, first compound 0.1 µM
[9] = second compound 0.1 µM, first compound 0.316 µM
[10] = second compound 0.1 µM, first compound 1 µM
[11] = second compound 0.1 µM, first compound 3.16 µM
[12] = second compound 0.1 µM, first compound 10 µM
[13] = second compound 0.316 µM, first compound 0.0316 µM
[14] = second compound 0.316 µM, first compound 0.1 µM
[15] = second compound 0.316 µM, first compound 0.316 µM
[16] = second compound 0.316 µM, first compound 1 µM
[17] = second compound 0.316 µM, first compound 3.16 µM
[18] = second compound 0.316 µM, first compound 10 µM
[19] = second compound 1 µM, first compound 0.0316 µM
[20] = second compound 1 µM, first compound 0.1 µM
[21] = second compound 1 µM, first compound 0.316 µM
[22] = second compound 1 µM, first compound 1 µM
[23] = second compound 1 µM, first compound 3.16 µM
[24] = second compound 1 µM, first compound 10 µM
[25] = second compound 3.16 µM, first compound 0.0316 µM
[26] = second compound 3.16 µM, first compound 0.1 µM
[27] = second compound 3.16 µM, first compound 0.316 µM
[28] = second compound 3.16 µM, first compound 1 µM
[29] = second compound 3.16 µM, first compound 3.16 µM
[30] = second compound 3.16 µM, first compound 10 µM
[31] = second compound 10 µM, first compound 0.0316 µM
[32] = second compound 10 µM, first compound 0.1 µM
[33] = second compound 10 µM, first compound 0.316 µM
[34] = second compound 10 µM, first compound 1 µM
[35] = second compound 10 µM, first compound 3.16 µM
[36] = second compound 10 µM, first compound 10 µM
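Also: spheroids exposed to compounds for seven days.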
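For viability, T/C in this document: 100% = DMSO vehicle control viability.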

CCCS(=O)(=O)Nc1ccc(F)c(C(=O)c2c[nH]c3ncc(-c4ccc(Cl)cc4)cc23)c1F + Cc1cnc(CNC(=O)c2c(=O)c3ccc(N4CCCN(C)CC4)nc3n3c2sc2ccccc23)cn1
> 10000 nM: IC50 (second compound 0.0316 µM)
64.2 nM: IC50 (second compound 1 µM)
777 nM: IC50 (second compound 0.1 µM)
37 nM: IC50 (second compound 0.316 µM)
inactive: viability, T/C [1] 93.5% | viability, T/C [2] 83.8% | viability, T/C [3] 83.3% | viability, T/C [4] 78.4% | viability, T/C [5] 84.6% | viability, T/C [6] 63.8% | viability, T/C [7] 60.9% | viability, T/C [8] 62.2% | viability, T/C [9] 56.1% | viability, T/C [10] 45.5% | viability, T/C [11] 42.2% | viability, T/C [12] 40% | viability, T/C [13] 51.2% | viability, T/C [14] 40.9% | viability, T/C [15] 42.3% | viability, T/C [16] 47.4% | viability, T/C [17] 34.6% | viability, T/C [18] 46.4% | viability, T/C [19] 51.4% | viability, T/C [20] 52.3% | viability, T/C [21] 46.3% | viability, T/C [22] 36.8% | viability, T/C [23] 47.7% | viability, T/C [24] 48.2% | viability, T/C [25] 39.7% | viability, T/C [26] 47.2% | viability, T/C [27] 43.6% | viability, T/C [28] 42% | viability, T/C [29] 58% | viability, T/C [30] 37.9% | viability, T/C [31] 43.5% | viability, T/C [32] 37% | viability, T/C [33] 36.9% | viability, T/C [34] 35.9% | viability, T/C [35] 37.9% | viability, T/C [36] 20.1%
< 31.6 nM: IC50 (second compound 3.16 µM) | IC50 (second compound 10 µM)

COc1cc(C2c3cc4c(cc3C(OC3OC5COC(C)OC5C(O)C3O)C3COC(=O)C23)OCO4)cc(OC)c1O (stereo not given) + Cc1cnc(CNC(=O)c2c(=O)c3ccc(N4CCCN(C)CC4)nc3n3c2sc2ccccc23)cn1
> 10000 nM: IC50 (second compound 0.0316 µM) | IC50 (second compound 0.1 µM)
< 31.6 nM: IC50 (second compound 0.316 µM) | IC50 (second compound 1 µM) | IC50 (second compound 3.16 µM) | IC50 (second compound 10 µM)
inactive: viability, T/C [1] 82.3% | viability, T/C [2] 60% | viability, T/C [3] 60.5% | viability, T/C [4] 74.5% | viability, T/C [5] 50.9% | viability, T/C [6] 49.9% | viability, T/C [7] 62.3% | viability, T/C [8] 59.1% | viability, T/C [9] 53.8% | viability, T/C [10] 63.6% | viability, T/C [11] 62.8% | viability, T/C [12] 39.9% | viability, T/C [13] 44.1% | viability, T/C [14] 53.2% | viability, T/C [15] 38.6% | viability, T/C [16] 49.7% | viability, T/C [17] 41.6% | viability, T/C [18] 34.3% | viability, T/C [19] 46.8% | viability, T/C [20] 39.9% | viability, T/C [21] 49.6% | viability, T/C [22] 36.1% | viability, T/C [23] 36% | viability, T/C [24] 43.4% | viability, T/C [25] 40.6% | viability, T/C [26] 47% | viability, T/C [27] 39.1% | viability, T/C [28] 46.6% | viability, T/C [29] 52.4% | viability, T/C [30] 48.2% | viability, T/C [31] 47.9% | viability, T/C [32] 50.3% | viability, T/C [33] 45.4% | viability, T/C [34] 38.2% | viability, T/C [35] 43.4% | viability, T/C [36] 41%

COc1cccc2c1C(=O)c1c(O)c3c(c(O)c1C2=O)CC(O)(C(=O)CO)CC3OC1CC(N)C(O)C(C)O1 (stereo not given) + Cc1cnc(CNC(=O)c2c(=O)c3ccc(N4CCCN(C)CC4)nc3n3c2sc2ccccc23)cn1
3670 nM: IC50 (second compound 0.1 µM)
inactive: viability, T/C [1] 83.7% | viability, T/C [2] 79.4% | viability, T/C [3] 67.2% | viability, T/C [4] 75.3% | viability, T/C [5] 73.1% | viability, T/C [6] 55% | viability, T/C [7] 54.3% | viability, T/C [8] 71.3% | viability, T/C [9] 58.3% | viability, T/C [10] 51.1% | viability, T/C [11] 53.6% | viability, T/C [12] 42% | viability, T/C [13] 52.8% | viability, T/C [14] 39.7% | viability, T/C [15] 42.1% | viability, T/C [16] 40.4% | viability, T/C [17] 60.5% | viability, T/C [18] 42.2% | viability, T/C [19] 50.6% | viability, T/C [20] 40.2% | viability, T/C [21] 37.1% | viability, T/C [22] 43.2% | viability, T/C [23] 52.2% | viability, T/C [24] 38.8% | viability, T/C [25] 38.5% | viability, T/C [26] 41.3% | viability, T/C [27] 41.3% | viability, T/C [28] 41.8% | viability, T/C [29] 51% | viability, T/C [30] 27.4% | viability, T/C [31] 44.9% | viability, T/C [32] 40.2% | viability, T/C [33] 46.6% | viability, T/C [34] 50.5% | viability, T/C [35] 36.8% | viability, T/C [36] 11.8%
> 10000 nM: IC50 (second compound 0.0316 µM)
< 31.6 nM: IC50 (second compound 0.316 µM) | IC50 (second compound 1 µM) | IC50 (second compound 3.16 µM) | IC50 (second compound 10 µM)

Nc1ccn(C2OC(CO)C(O)C2(F)F)c(=O)n1 (stereo not given) + Cc1cnc(CNC(=O)c2c(=O)c3ccc(N4CCCN(C)CC4)nc3n3c2sc2ccccc23)cn1
< 31.6 nM: IC50 (second compound 0.0316 µM) | IC50 (second compound 0.1 µM) | IC50 (second compound 0.316 µM) | IC50 (second compound 1 µM) | IC50 (second compound 3.16 µM) | IC50 (second compound 10 µM)
inactive: viability, T/C [1] 29.4% | viability, T/C [2] 28.8% | viability, T/C [3] 23.6% | viability, T/C [4] 21.1% | viability, T/C [5] 23.4% | viability, T/C [6] 21.7% | viability, T/C [7] 26.3% | viability, T/C [8] 23.9% | viability, T/C [9] 29.4% | viability, T/C [10] 21.7% | viability, T/C [11] 25.2% | viability, T/C [12] 27.2% | viability, T/C [13] 34.3% | viability, T/C [14] 34.5% | viability, T/C [15] 30.5% | viability, T/C [16] 30.3% | viability, T/C [17] 31.5% | viability, T/C [18] 27.8% | viability, T/C [19] 38.1% | viability, T/C [20] 50.9% | viability, T/C [21] 54.8% | viability, T/C [22] 34.6% | viability, T/C [23] 46.1% | viability, T/C [24] 39.4% | viability, T/C [25] 39.6% | viability, T/C [26] 45% | viability, T/C [27] 48.3% | viability, T/C [28] 38% | viability, T/C [29] 56.3% | viability, T/C [30] 41.8% | viability, T/C [31] 45.1% | viability, T/C [32] 33.5% | viability, T/C [33] 44.8% | viability, T/C [34] 41.2% | viability, T/C [35] 39.2% | viability, T/C [36] 33.4%

O=c1[nH]cc(F)c(=O)[nH]1 + Cc1cnc(CNC(=O)c2c(=O)c3ccc(N4CCCN(C)CC4)nc3n3c2sc2ccccc23)cn1
< 31.6 nM: IC50 (second compound 0.316 µM) | IC50 (second compound 1 µM) | IC50 (second compound 3.16 µM) | IC50 (second compound 10 µM)
> 10000 nM: IC50 (second compound 0.0316 µM) | IC50 (second compound 0.1 µM)
inactive: viability, T/C [1] 85.8% | viability, T/C [2] 69.8% | viability, T/C [3] 79.3% | viability, T/C [4] 96.3% | viability, T/C [5] 82.1% | viability, T/C [6] 57.4% | viability, T/C [7] 65.7% | viability, T/C [8] 49.3% | viability, T/C [9] 49.7% | viability, T/C [10] 61.5% | viability, T/C [11] 63.1% | viability, T/C [12] 60.1% | viability, T/C [13] 50.6% | viability, T/C [14] 47.1% | viability, T/C [15] 45.5% | viability, T/C [16] 42.8% | viability, T/C [17] 48.7% | viability, T/C [18] 49.3% | viability, T/C [19] 54.1% | viability, T/C [20] 38.2% | viability, T/C [21] 40.8% | viability, T/C [22] 42.6% | viability, T/C [23] 50% | viability, T/C [24] 44.9% | viability, T/C [25] 46% | viability, T/C [26] 50.6% | viability, T/C [27] 43.3% | viability, T/C [28] 53.6% | viability, T/C [29] 51.5% | viability, T/C [30] 46.4% | viability, T/C [31] 44.2% | viability, T/C [32] 44% | viability, T/C [33] 43.7% | viability, T/C [34] 37.2% | viability, T/C [35] 47.4% | viability, T/C [36] 46.1%
